This note sets out measurements from patent publication US11679107B2 (Eisai R&D Management Co., Ltd., priority 2018, dated 2023).

In general, IC50 refers to the concentration at which inhibition is half-maximal. Usually GI50 stands for the concentration at which growth is held to half of that of the control.

Structures are written as SMILES. Where two headings read alike, the source gives them in different places.

One assay deals with T1, SF3b complexes (Homo sapiens, UniProt O75533+Q7RTV0).
T1 construct: endogenous in cells; host or cells: Nuclear extracts; A HeLa S3 extract preparation is described for the in vitro splicing assay
Kind of assay: Scintillation proximity assay (SPA) with [3H]-labelled pladienolide probe. In kind it is binding. To be noted: SF3B1 (WT); geometric mean; read-out: SPA-ATS GMean IC50 (nM) SF3B1 (WT). The essentials:
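SF3b complexes captured from nuclear extracts on anti-SF3B1 antibody SPA beads; test compounds pre-incubated 30 min before 2.5 nM [3H]-pladienolide probe added, then 30 min incubation. Bound probe read by scintillation; values from non-linear regression of concentration–response curves.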
Background: Scintillation proximity formats need no separation of bound from free tracer.

Assay [1] has as its system Ad2 variant pre-mRNAs spliced in HeLa S3 nuclear extracts. Kind of assay: In vitro splicing assay (IVS), RT-qPCR of spliced product. It is filed as biochemical. To be noted: for IC50: geometric mean; for Ratio Ad2.1/2.2: ratio of IVS IC50 Ad2.1 to Ad2.2. The essentials: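 Read-out is one-step TaqMan RT-qPCR of spliced Ad2 mRNA with Ftz as reference, normalized to DMSO and fit by non-linear regression. Reactions held HeLa S3 nuclear extract, 2 ng Ad2-derived pre-mRNA and test compound, with 15 min preincubation. Splicing was started with ATP-containing activation buffer and run 90 min at 30 °C.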

For assay [2], the system named is NCI-H1568 cells (high MCL1). The assay is described as follows: Cell proliferation and viability, CellTiter-Glo, 72 hours. To be noted: for GI50: geometric mean. It is filed as cell-based. The essentials:
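ATP luminescence (CellTiter-Glo) was measured 72 h after treatment with compound at 10 μM–100 pM (11 points, half-log) in 0.1% DMSO. The Panc line was grown in RPMI-1640 plus insulin and 15% FBS, the other in 10% FBS. Data were normalised to time zero and vehicle controls, where −100% is cidal and 0% static.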

[3] abbreviates: Ad2.1 pre-mRNA substrate, read-out: qPCR-IVS-ATS GMean IC50 (nM) Ad2.1.
The mark [4] stands for this setting: Ad2.2 pre-mRNA substrate, read-out: qPCR-IVS-ATS GMean IC50 (nM) Ad2.2.
Where [5] appears, read: 72 h, NCIH1568.1, -100% = cidal, 0% = static, 100% = uninhibited growth.
[6] abbreviates: NCI-H1568, 72 h, read-out: CTGlo-ATS GMean GI50 (nM) 72 h NCIH1568.1, 72 h, NCIH1568.1.
Where [7] appears, read: NCI-H1568, read-out: CTGlo-ATS GMean GI50 (nM) 72 h NCIH1568.1, NCIH1568.1 cells, 72 h.
Where [8] appears, read: NCIH1568.1 cells, 72 h, −100% cidal, 0% static, 100% maximal growth.

Take `C/C(=C\c1cc(F)cc(N2CCN(C(=O)Cn3cccn3)CC2)c1)[C@H]1OC(=O)C[C@H](O)CC[C@H](C)[C@@H](OC(=O)N2CCN(Cc3cccnc3)CC2)/C=C/[C@@H]1C` [Compound 252, [(2S,3S,4E,6R,7S,10R)-2-[(E)-1-[3-fluoro-5-[4-(2-pyrazol-1-ylacetyl)piperazin-1-yl]phenyl]prop-1-en-2-yl]-10-hydroxy-3,7-dimethyl-12-oxo-1-oxacyclododec-4-en-6-yl] 4-(pyridin-3-ylmethyl)piperazine-1-carboxylate]: the IC50 turned out to be 21.8 nM at SF3b complexes, 22.6 nM in assay [1] (setting [3]) and 27.4 nM in assay [1] (setting [4]). For the same compound, the “Ratio Ad2.1/2.2” value in assay [1] is on record as 0.825. Also, the “CTGlo-ATS Mean MinResponse % 72 h NCIH1568.1” value in assay [2] (setting [5]) is given as −76.109%. Besides, the GI50 in assay [2] (setting [6]) was 10.3 nM.

`C/C(=C\c1cc(F)c2nnn(Cc3ccc(Cl)cc3)c2c1)[C@H]1OC(=O)C[C@H](O)CC[C@H](C)[C@@H](OC(=O)N2CCN(C)CC2)/C=C/[C@@H]1C` [Compound 145]: the 50% inhibitory concentration (IC50) on SF3b complexes was 69.4 nM; in assay [1] (setting [3]) it was 688 nM; in assay [1] (setting [4]) it was 38.1 nM. For the same compound, in assay [2] (setting [7]), the GI50 is 25 nM. Also, the “CTGlo-ATS Mean MinResponse % 72 h NCIH1568.1” value in assay [2] (setting [8]) is on record as −66.236%.

As for `C/C(=C\c1cc(F)cc(NC2CCN(S(C)(=O)=O)CC2)c1)[C@H]1OC(=O)C[C@H](O)CC[C@H](C)[C@@H](OC(=O)N2CCN(C)CC2)/C=C/[C@@H]1C` [Compound 173], the IC50 at SF3b complexes turned out to be 21 nM; in assay [1] (setting [3]) it was 88.1 nM; in assay [1] (setting [4]) it was 28.4 nM. Besides, the GI50 in assay [2] (NCI-H1568, 72 h, read-out: CTGlo-ATS GMean GI50 (nM) 72 h NCIH1568.1, NCIH1568.1 cells, 72 h) is 15.2 nM. Also, in assay [2] (setting [8]), the “CTGlo-ATS Mean MinResponse % 72 h NCIH1568.1” value is on record as −79.437%.

For `C/C(=C\c1cc(F)cc(N2CCN(C(=O)CCO)CC2)c1)[C@H]1OC(=O)C[C@H](O)CC[C@H](C)[C@@H](OC(=O)N2CCN(C)CC2)/C=C/[C@@H]1C` [Compound 155], the values for the IC50 (at SF3b complexes; in assay [1] (setting [3]); in assay [1] (setting [4])) were 2.21 nM, 8.45 nM and 5.88 nM, respectively. Moreover, the GI50 in assay [2] (setting [7]) stood at 1.91 nM. The “CTGlo-ATS Mean MinResponse % 72 h NCIH1568.1” value in assay [2] (setting [8]) is on record as −83.475%.

For the compound `C/C(=C\c1cc(F)c2cnn(C3CCC(F)(F)CC3)c2c1)[C@H]1OC(=O)C[C@H](O)CC[C@H](C)[C@@H](OC(=O)N2CCN(C)CC2)/C=C/[C@@H]1C` [Compound 195], the IC50 is 69.3 nM at SF3b complexes, 91.9 nM in assay [1] (setting [3]) and 58.3 nM in assay [1] (setting [4]). The GI50 in assay [2] (setting [7]) was found to be 6.59 nM. For the same compound, in assay [2] (setting [8]), the “CTGlo-ATS Mean MinResponse % 72 h NCIH1568.1” value is −95.559%.

On to `C/C(=C\c1cc(F)cc(N2CCN(C(=O)Cn3cccn3)CC2)c1)[C@H]1OC(=O)C[C@H](O)CC[C@H](C)[C@@H](OC(=O)NCc2ccncc2)/C=C/[C@@H]1C` [Compound 221, [(2S,3S,4E,6R,7S,10R)-2-[(E)-1-[3-fluoro-5-[4-(2-pyrazol-1-ylacetyl)piperazin-1-yl]phenyl]prop-1-en-2-yl]-10-hydroxy-3,7-dimethyl-12-oxo-1-oxacyclododec-4-en-6-yl] N-(pyridin-4-ylmethyl)carbamate], for which the IC50 at SF3b complexes is 9.33 nM; in assay [1] (setting [3]), 9.6 nM; in assay [1] (setting [4]), 4.86 nM. In addition, the “Ratio Ad2.1/2.2” value in assay [1] is on record as 1.973. Further, in assay [2] (setting [5]), the “CTGlo-ATS Mean MinResponse % 72 h NCIH1568.1” value was −66.213%. The GI50 in assay [2] (setting [6]) is 11.4 nM.

Take `CCC(=O)N1CCC(N(C)c2cc(F)cc(/C=C(\C)[C@H]3OC(=O)C[C@H](O)CC[C@H](C)[C@@H](OC(=O)N4CCN(C)CC4)/C=C/[C@@H]3C)c2)CC1` [Compound 178]: the IC50 on SF3b complexes amounted to 2.16 nM; in assay [1] (setting [3]), 20.4 nM; in assay [1] (setting [4]), 4.31 nM. In assay [2] (setting [7]), the GI50 stood at 6.85 nM. The “CTGlo-ATS Mean MinResponse % 72 h NCIH1568.1” value in assay [2] (setting [8]) is −77.714%.
